Test results: patent publication US12171255B2, “Shisha, heat-not-burn, or combustion casing, product, and method of making the same” (Tobacco Technology, Inc., priority 2020, dated 2024)

Tested on: microbial growth
Experiment: Inhibition of microbial growth (preservative effect)

SMILES | effectiveness at inhibiting microbial growth compared with propylene glycol | amount that can inhibit microbial growth and act as a preservative (in casing)
O=C(O)CC(O)(CC(=O)O)C(=O)O [citric acid] | more effective at inhibiting microbial growth than propylene glycol | –
CC(O)CO (centres unmarked) [propylene glycol] | – | above 15 % by weight
